Experimental findings from PubChem BioAssay AID1549 (Sanford-Burnham Center for Chemical Genomics, 2009) are described below.

Structures are written as SMILES. Activity calls are given as the source filed them. How the calls were made is not given here.

This test concerns the target Influenza A virus M2 proton channel (A/TW/4845/1999 H1N1). The test can be described thus: M2 proton channel binding, NMR based, influenza A virus H1N1 strain (AID 1549). The settings on record: NMR binding screen, M2 protein.
In the case of `COC(=O)c1ccc(C(=S)N2CCOCC2)cc1`, the Kd is > 4 mM (inactive).

With `O=C(Cc1c(F)cccc1Cl)Nc1ccncc1`, the Kd was > 4 mM (inactive).

For `CC(=O)Nc1cccc(N(C)S(C)(=O)=O)c1`, the Kd was > 4 mM (inactive).

With `O=C(Cc1c(F)cccc1Cl)Nc1ccon1`, the Kd was > 4 mM (inactive).

For `COc1ccc(-c2cc(=O)c3c(OC(C)=O)cc(OC(C)=O)cc3o2)cc1`, the Kd is > 4 mM (inactive).

For `COC(=O)C1=CO[C@@H](O[C@@H]2O[C@H](CO)[C@@H](O)[C@H](O)[C@H]2O)[C@@H]2[C@@H](C)[C@@H](O)C[C@H]12`, the Kd was > 4 mM (inactive).

Regarding `O=C(CO)N/N=C/c1ccccc1F`, the Kd is > 4 mM (inactive).

As for `COC(=O)[C@@]1(C)CCC[C@]2(C)c3ccc(O)c(C(C)C)c3CCC12` (some centres undefined), the Kd was > 4 mM (inactive).

As to `O=C(c1ccccc1-c1ccccc1)N1CCOCC1`, the Kd was > 4 mM (inactive).

With `C=C(C)[C@@H]1[C@H]2OC(=O)[C@@H]1[C@]1(O)C[C@H]3O[C@]34C(=O)O[C@H]2[C@]14C`, the Kd was > 4 mM (inactive).

In the case of `CC1(C)CC(NC(=O)/C=C/C(=O)O)CC(C)(C)N1`, the Kd is > 4 mM (inactive).

`COC(=O)C[C@H]1C(C)(C)C(=O)[C@@H]2CC3=C(CC[C@]4(C)C3=CC(=O)O[C@H]4c3ccoc3)C1(C)C2=O`: the Kd was > 4 mM (inactive).

On to `CCOC(=O)C1CCN(c2ccc(C#N)cc2)CC1`, for which the Kd is > 4 mM (inactive).

For `COC(=O)c1scc(C)c1N`, the Kd was > 4 mM (inactive).

For `COc1cc(C/C=C/c2ccccc2)c(OC)cc1O`, the Kd was > 4 mM (inactive).

For `CCC(C)C(=O)O[C@@H]1C[C@@]2(C)[C@H](c3ccoc3)OC(=O)CC23OC2(C)O[C@]14[C@]1(C)[C@@H](CC(=O)OC)C5(C)CC1(O)[C@](O)(C5OC(=O)C1(C)OC1C)[C@@H](OC(C)=O)[C@]34O2` (some centres undefined), the Kd is > 4 mM (inactive).

Turning to `Cc1c(N=Cc2ccco2)c(=O)n(-c2ccccc2)n1C`, the Kd is > 4 mM (inactive).

As to `COC(=O)C1CSCC1=O` (centres undefined), the Kd was > 4 mM (inactive).

As for `CC(=O)O[C@@H]1c2c(ccc3ccc(=O)oc23)OC(C)(C)[C@@H]1OC(=O)CC(C)C`, the Kd was > 4 mM (inactive).

In the case of `Cc1occc1C(=O)Nc1ccc2c(c1)CCC2`, the Kd was > 4 mM (inactive).

For `C/C=C/C=N/NC(=O)c1ccc(=O)n(C)c1`, the Kd was > 4 mM (inactive).

Consider `Nc1ccc2c(c1)CCC2=O`, for which the Kd is > 4 mM (inactive).

With `COc1cc(OC)c2c(=O)c(O)c(-c3ccc(OC)c(OC)c3)oc2c1`, the Kd is > 4 mM (inactive).

Regarding `CC(=O)Nc1cc(C(F)(F)F)ccc1N1CCOCC1`, the Kd was > 4 mM (inactive).

For `CC1CN=C(Nc2ccccc2)S1` (centres undefined), the Kd is > 4 mM (inactive).

Consider `O=C(CC1NC(=O)NC1=O)Nc1ccccc1` (centres undefined), for which the Kd is > 4 mM (inactive).

Turning to `CC(=O)c1cccc(NC(=O)Nc2c(C)nn(C)c2C)c1`, the Kd was > 4 mM (inactive).

Turning to `O=C(O)CN1CCN(C2CCCC2)CC1`, the Kd is > 4 mM (inactive).

Consider `Cc1ccc(OCC(=O)n2cnnc2N)c(C)c1`, for which the Kd is > 4 mM (inactive).

`O=C(Nc1nnc(-c2ccco2)o1)C1=COCCO1`: the Kd is > 4 mM (inactive).

On to `C=CCSCC=C`, for which the Kd was > 4 mM (inactive).

As to `CCN(CC)c1nc2n(c(=O)n1)CCO2`, the Kd was > 4 mM (inactive).

On to `O=C(OC[C@H]1O[C@H](OC(=O)c2cc(O)c(O)c(OC(=O)c3cc(O)c(O)c(O)c3)c2)[C@H](OC(=O)c2cc(O)c(O)c(OC(=O)c3cc(O)c(O)c(O)c3)c2)[C@@H](OC(=O)c2cc(O)c(O)c(OC(=O)c3cc(O)c(O)c(O)c3)c2)[C@@H]1OC(=O)c1cc(O)c(O)c(OC(=O)c2cc(O)c(O)c(O)c2)c1)c1cc(O)c(O)c(OC(=O)c2cc(O)c(O)c(O)c2)c1`, for which the Kd is > 4 mM (inactive).

As for `CNC(=S)Nc1ccc(C(=O)O)cc1`, the Kd was > 4 mM (inactive).

`Cc1cc(C(=O)N2CCN(c3ccccn3)CC2)no1`: the Kd is > 4 mM (inactive).

On to `O=C1CS/C(=N/S(=O)(=O)c2ccccc2)N1`, for which the Kd was > 4 mM (inactive).

For the molecule `N#CCSc1nnc2ccc3ccccc3n12`, the Kd was > 4 mM (inactive).

On to `OC1COCc2nc3ccccc3n2C1` (centres undefined), for which the Kd was > 4 mM (inactive).

Turning to `CC(=O)Nc1ccc(S(=O)(=O)NCC2CCCO2)cc1` (centres undefined), the Kd is > 4 mM (inactive).

Turning to `Cc1c(CO)cnn1-c1ccccc1`, the Kd is > 4 mM (inactive).

Regarding `COC(=O)CC1C(C)(C)C(OC(C)=O)[C@@H]2[C@@H](OC(C)=O)[C@]34O[C@@]2(O)[C@]1(C)C3CC[C@]1(C)C4=CC(=O)O[C@H]1c1ccoc1` (some centres undefined), the Kd was > 4 mM (inactive).

For the molecule `O=C(O[C@@H]1Cc2c(O)cc(O)cc2O[C@@H]1c1cc(O)c(O)c(O)c1-c1c([C@H]2Oc3cc(O)cc(O)c3C[C@H]2O)cc(O)c(O)c1O)c1cc(O)c(O)c(O)c1`, the Kd was > 4 mM (inactive).

Consider `COC(=O)c1c(C)cc(OC(=O)c2c(C)cc(O)c(C=O)c2O)c(C)c1O`, for which the Kd was > 4 mM (inactive).

In the case of `CC(=O)C1CC[C@H]2C3CC[C@H]4C[C@H](O)CC[C@]4(C)C3CC[C@]12C` (some centres undefined), the Kd was > 4 mM (inactive).

Consider `CN1CCC=C(C(=O)O)C1`, for which the Kd was > 4 mM (inactive).

Take `NC(=O)N1CCc2ccccc21`: the Kd is > 4 mM (inactive).

Turning to `CN(C)Cc1c(N)cccc1O`, the Kd was > 4 mM (inactive).

Regarding `C/C(O)=c1/sc2cc(C)nc(=N)n2c1=O`, the Kd was > 4 mM (inactive).

`CCC[C@@H]1CCCCN1`: the Kd is > 4 mM (inactive).

Take `CC(C)NC(=S)N1CCN(S(C)(=O)=O)CC1`: the Kd is > 4 mM (inactive).

In the case of `CC(=O)Nc1ccccc1OCC(N)=O`, the Kd is > 4 mM (inactive).

Turning to `CN1CCN(c2ccc(CN)cc2)CC1`, the Kd was > 4 mM (inactive).

Regarding `Cc1noc(C)c1C(=O)N1CCC(Cc2ccccc2)CC1`, the Kd was > 4 mM (inactive).

Turning to `CC(=O)NC(=S)Nc1ccccc1C`, the Kd is > 4 mM (inactive).

As to `CCNC(CC(=O)Nc1ccc(O)cc1)C(=O)O` (centres undefined), the Kd is > 4 mM (inactive).

As to `COC(=O)C1Cc2ccccc2N1` (centres undefined), the Kd was > 4 mM (inactive).

Regarding `COc1ccccc1NC(=O)c1snnc1C`, the Kd is > 4 mM (inactive).

Take `CN1CCN(C2CCSC2)CC1` (centres undefined): the Kd was > 4 mM (inactive).

As to `CSc1n[nH]c(NCc2cccs2)n1`, the Kd is > 4 mM (inactive).

Regarding `CC(=O)OC1CCC2(O)CC1(C)CCC1C2CC1(C)C` (centres undefined), the Kd was > 4 mM (inactive).

Consider `COc1ccc(Cl)cc1-c1nc(-c2ccncc2)no1`, for which the Kd is > 4 mM (inactive).

On to `CC1=NCCc2c1[nH]c1cc(O)ccc21`, for which the Kd was > 4 mM (inactive).

In the case of `COc1ccc(N2C(=N)C(C)(C)NC2=O)cc1`, the Kd was > 4 mM (inactive).

`NC(=O)c1ccc(N2C(=O)C=CC2=O)cc1Cl`: the Kd was > 4 mM (inactive).

In the case of `NC(=O)c1cccc2c1OCCO2`, the Kd is > 4 mM (inactive).

For `CC(C)(O)CC[C@@H](O)[C@](C)(O)C1CC[C@@]2(O)C3=CC(=O)C4C[C@@H](O)[C@@H](O)C[C@]4(C)C3CC[C@]12C` (some centres undefined), the Kd is > 4 mM (inactive).

With `O=C1NC(=Nc2ccccc2)S/C1=C/c1cccnc1`, the Kd was > 4 mM (inactive).

For the molecule `CC[C@@]1(O)C[C@H](O)c2c(cc3c(c2O)C(=O)c2c(O)ccc(O)c2C3=O)[C@H]1C(=O)OC`, the Kd was > 4 mM (inactive).

For `COc1ccc(-c2c(C)n([O-])c(C)c(C)[n+]2=O)cc1`, the Kd is > 4 mM (inactive).

On to `CN(C)c1n[nH]c(=O)[nH]c1=O`, for which the Kd was > 4 mM (inactive).

In the case of `Oc1ccc(-n2cncn2)cc1`, the Kd is > 4 mM (inactive).

For `NC1=NC(=O)/C(=C\c2ccco2)S1`, the Kd was > 4 mM (inactive).

As for `CNC(=O)c1cccc(NC(=S)NC)c1`, the Kd is > 4 mM (inactive).

For the molecule `O=c1c2ccccc2oc2ccc(O)cc12`, the Kd is > 4 mM (inactive).

On to `COC(=O)C(O)c1ccccc1` (centres undefined), for which the Kd is > 4 mM (inactive).

As to `CC(=O)O[C@H]1C[C@@H](OC(C)=O)C(C)(C)C2C[C@@H](OC(C)=O)[C@]3(C)C(CC[C@@]4(C)[C@H](c5ccoc5)OC(=O)[C@H]5O[C@]543)[C@]21C` (some centres undefined), the Kd is > 4 mM (inactive).

On to `O=C(O)c1scc2c1CCCC2`, for which the Kd is > 4 mM (inactive).

Turning to `O=S1(=O)C=C(Nc2ccccc2)CC1`, the Kd is > 4 mM (inactive).

In the case of `CN1CCC(NC(=O)C2CCCO2)CC1` (centres undefined), the Kd was > 4 mM (inactive).

Take `Cc1n[nH]c(=S)n1-c1ccc(C(=O)O)cc1`: the Kd was > 4 mM (inactive).

For the molecule `COc1ccc2nc(N)sc2n1`, the Kd is > 4 mM (inactive).

`Cc1cc(C(=O)NCc2ccco2)cs1`: the Kd was > 4 mM (inactive).

Consider `Nn1c(CN2CCCCC2)nc2ccccc2c1=O`, for which the Kd is > 4 mM (inactive).

For `O=c1[nH]c(CN2CCN(CCO)CC2)nc2ccccc12`, the Kd was > 4 mM (inactive).

Take `CCc1cc(=O)[nH]c(SCC(=O)NCCOC)n1`: the Kd is > 4 mM (inactive).

For the molecule `O=C(O)Cc1nc(-c2ccncc2)n[nH]1`, the Kd is > 4 mM (inactive).

Regarding `CCOC(=O)c1cnc2n(c1=O)CCS2`, the Kd is > 4 mM (inactive).

Regarding `COc1ccc(-c2coc3c(O)c(OC)ccc3c2=O)cc1`, the Kd was > 4 mM (inactive).

On to `Nc1nc(O)c(C2=c3cc(Cl)ccc3=NC2=O)s1`, for which the Kd was > 4 mM (inactive).

Turning to `COc1cc(O)c2c(=O)cc(-c3ccc(OC)c(-c4c(O)cc(O)c5c(=O)cc(-c6ccc(O)cc6)oc45)c3)oc2c1`, the Kd is > 4 mM (inactive).

In the case of `COc1ccc2c(c1)OC/C(=C/c1ccc(OC)c(OC)c1)C2=O`, the Kd was > 4 mM (inactive).

Consider `Cc1ccc(C(O)c2nccn2C)o1` (centres undefined), for which the Kd was > 4 mM (inactive).

Regarding `Nc1ccccc1C(=O)N1CCOCC1`, the Kd was > 4 mM (inactive).

Regarding `Nc1nc(N)nc(N2C(=O)c3ccccc3C2=O)n1`, the Kd was > 4 mM (inactive).
